According to paper PMC11123773, “Identification of New Substrates and Inhibitors of Human CYP2A7” (Molecules, 2024):
Substitutions are numbered along the chain they refer to. Where two headings read alike, the source gives them in different places.

What was measured:
CYP2A6*1 [1] = target: T1, CYP2A6*1 (Homo sapiens, UniProt P11509); assay: in vitro
T1 sequence (P11509 1-494): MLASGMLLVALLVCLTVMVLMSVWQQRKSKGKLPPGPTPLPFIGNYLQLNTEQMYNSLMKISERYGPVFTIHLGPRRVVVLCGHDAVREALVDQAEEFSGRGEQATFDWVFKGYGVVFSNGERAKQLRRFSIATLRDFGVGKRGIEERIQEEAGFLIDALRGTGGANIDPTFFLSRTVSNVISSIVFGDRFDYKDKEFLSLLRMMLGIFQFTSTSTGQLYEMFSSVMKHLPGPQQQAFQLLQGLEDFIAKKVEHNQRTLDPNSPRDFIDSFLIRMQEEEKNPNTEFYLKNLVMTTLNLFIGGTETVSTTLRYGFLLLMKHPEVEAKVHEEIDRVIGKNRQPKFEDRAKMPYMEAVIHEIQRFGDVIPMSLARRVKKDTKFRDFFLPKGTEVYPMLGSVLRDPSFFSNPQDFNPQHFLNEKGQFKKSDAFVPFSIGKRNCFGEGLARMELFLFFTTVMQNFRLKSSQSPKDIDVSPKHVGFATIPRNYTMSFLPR

CYP2A7-WT [2] = target: T2, CYP2A7-WT (Homo sapiens, UniProt P20853, D169E/H274R/R311C/V479G); assay: in vitro
T2 sequence (P20853 1-494 D169E/H274R/R311C/V479G): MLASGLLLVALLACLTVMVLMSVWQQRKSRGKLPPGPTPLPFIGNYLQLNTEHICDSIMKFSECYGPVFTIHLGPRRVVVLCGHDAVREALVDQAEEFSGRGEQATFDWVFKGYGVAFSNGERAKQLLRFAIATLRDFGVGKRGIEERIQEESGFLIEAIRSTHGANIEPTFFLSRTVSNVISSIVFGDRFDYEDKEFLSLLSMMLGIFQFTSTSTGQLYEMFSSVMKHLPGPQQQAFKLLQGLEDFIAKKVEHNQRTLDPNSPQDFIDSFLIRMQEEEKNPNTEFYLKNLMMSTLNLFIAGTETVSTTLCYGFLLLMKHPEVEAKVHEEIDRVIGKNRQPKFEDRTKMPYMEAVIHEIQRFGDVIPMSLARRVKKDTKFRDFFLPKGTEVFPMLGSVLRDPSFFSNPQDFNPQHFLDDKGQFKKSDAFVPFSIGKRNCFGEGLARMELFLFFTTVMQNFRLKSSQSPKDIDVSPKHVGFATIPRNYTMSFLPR

CYP2A7*1 [3] = target: T3, CYP2A7*1 (Homo sapiens, UniProt P20853); assay: in vitro
T3 sequence (P20853 1-494): T2 sequence (P20853 1-494 D169E/H274R/R311C/V479G) with E169D, R274H, C311R, G479V

CYP2A7-WT [4] = target: T2, CYP2A7-WT; assay: Conversion of luminogenic (proluciferin) substrates by permeabilized fission yeast cells (enzyme bags); assay type: biochemical; design: expressed in transfected cells; host or cells: Schizosaccharomyces pombe strain AA01 (pREP1-CYP2A7-WT in CAD62), permeabilized cells (enzyme bags); conditions: for Luminescence (RLU): enzyme CYP2A7-WT coexpressed with CPR, compound as substrate, 3 h, 37 °C, mean ± SD
Protocol: (§1) Briefly, a concentrated CYP reaction mixture (containing a fourfold concentrated substrate and potassium phosphate buffer) was added to the cell pellets after the permeabilization and washing process. For inhibition assays, the CYP reaction mixtures with the inhibitors at a final concentration of 10 µM were pre-incubated at 37 °C for 10 min. CYP reactions were commenced by adding the twofold concentrated NADPH regeneration system. Samples were incubated for 3 h at 37 °C and 1000 rpm. After centrifugation at 16,000× g for 1 min, the supernatants were transferred to the white microtiter plates and an equal amount of reconstituted luciferin detection reagent was added to each well. Plates were then incubated at room temperature for 20 min and the luminescence was recorded on a Magellan infinite 200Pro microplate reader (Tecan; Männedorf, Switzerland). For the proluciferin substrates’ screening, the specific reaction conditions and substrate concentrations were as given in the instructions of the manufacturer (Promega). […] For inhibitor assays, ketoconazole, 1-benzylimidazole, and letrozole were added to a final concentration of 10 µM. All measurements were done at least three times in triplicates.

CYP2A7*1 [5] = target: T3, CYP2A7*1; assay: as above; assay type: biochemical; design: expressed in transfected cells; host or cells: Schizosaccharomyces pombe strain RAJ127 (pREP1-CYP2A7*1 in CAD62), permeabilized cells (enzyme bags); conditions: for Conversion of luminogenic substrate (in words): by CYP2A7*1, vs. negative control (CPR only); for Luminescence (RLU): enzyme CYP2A7*1 coexpressed with CPR, compound as substrate, 3 h, 37 °C, mean ± SD
Protocol: as §1

CYP2A6*1 [6] = target: T1, CYP2A6*1; conditions: by CYP2A6*1, vs. negative control (CPR only)
Protocol: This was performed as described previously with slight modifications. Briefly, fission yeast cells were cultured on EMM plates with 5 µM thiamine for 3 days at 30 °C. A single yeast colony was then transferred to a 10 mL liquid culture of EMM without thiamine and cultured at 30 °C and 230 rpm for 36 h. As the recombinant expression of the human enzymes is controlled by the strong endogenous nmt1 promoter, all subsequent cultures were cultured in the absence of thiamine to keep the promoter in an active state. For each activity assay, 5 × 10^7 cells (stationary growth phase) were transferred to 1.5 mL Eppendorf tubes (Axygen; Silicon Valley, USA), pelleted, and incubated in 1 mL of 0.3% Triton-X100 in Tris-KCl buffer (200 mM KCl, 100 mM Tris-HCl pH 7.8) at room temperature for 60 min at 150 rpm for permeabilization. After three washes with 1 mL NH4HCO3 buffer (50 mM, pH 7.8), cells were resuspended in phosphate buffer (pH 7.4) and then the substrate and the NADPH regeneration system were added to a total volume of 50 µL. The samples were incubated at 37 °C and 1000 rpm for 3 h. […]
This was performed as described previously with slight modifications. […] Plates were then incubated at room temperature for 20 min and the luminescence was recorded on a Magellan infinite 200Pro microplate reader (Tecan; Männedorf, Switzerland). […]

CYP2A6*1 [7] = target: T1, CYP2A6*1; assay: Fluorescence detection of coumarin 7-hydroxylation and deethylation of 7-ethoxycoumarin; assay type: biochemical; design: expressed in transfected cells; host or cells: Schizosaccharomyces pombe strain RAJ122 (pREP1-CYP2A6*1 in CAD62), permeabilized cells (enzyme bags); conditions: by CYP2A6*1; fluorometric
Protocol: (§2) The fluorescence activity of CYP enzymes was measured as described with slight modifications. The solution was shaken at 37 °C for 3 h in the dark at a 50 µL final reaction volume. Afterwards, reactions were stopped by adding 350 µL ethyl acetate. The reaction tubes were vortexed for 5 min before centrifugation at 16,000× g for 8 min. Finally, 200 µL of the upper phase was extracted three times with 350 µL of ethyl acetate each. In the last step, the reaction tubes were air-dried in the dark. For reconstituting the pellet we added 50 µL of methanol, which was later followed by the addition of 250 µL of 0.01 M NaOH. The amounts of de-ethylated products were quantified by using standard solutions of 7-hydroxycoumarin and 7-ethoxycoumarin. The concentrations of 7-hydroxycoumarin were determined fluorometrically with 50 µL volume using Grenier microlon flat-bottom 96-well black plates. The energies for excitation and emission were set at 368 and at 530 nm, respectively. All readings were taken in triplicate.

CYP2A7-WT [8] = target: T2, CYP2A7-WT; assay: as above; assay type: biochemical; design: expressed in transfected cells; host or cells: Schizosaccharomyces pombe strain AA01 (pREP1-CYP2A7-WT in CAD62), permeabilized cells (enzyme bags); conditions: by CYP2A7-WT; fluorometric
Protocol: as §2

CYP2A7*1 [9] = target: T3, CYP2A7*1; assay: as above; assay type: biochemical; design: expressed in transfected cells; host or cells: Schizosaccharomyces pombe strain RAJ127 (pREP1-CYP2A7*1 in CAD62), permeabilized cells (enzyme bags); conditions: by CYP2A7*1; fluorometric
Protocol: as §2

CYP2A7*1 [10] = target: T3, CYP2A7*1; conditions: by CYP2A7*1; nicotine 250 µM
Protocol: (§3) This was performed as described previously with slight modifications. Briefly, fission yeast cells were cultured on EMM plates with 5 µM thiamine for 3 days at 30 °C. A single yeast colony was then transferred to a 10 mL liquid culture of EMM without thiamine and cultured at 30 °C and 230 rpm for 36 h. As the recombinant expression of the human enzymes is controlled by the strong endogenous nmt1 promoter, all subsequent cultures were cultured in the absence of thiamine to keep the promoter in an active state. For each activity assay, 5 × 10^7 cells (stationary growth phase) were transferred to 1.5 mL Eppendorf tubes (Axygen; Silicon Valley, USA), pelleted, and incubated in 1 mL of 0.3% Triton-X100 in Tris-KCl buffer (200 mM KCl, 100 mM Tris-HCl pH 7.8) at room temperature for 60 min at 150 rpm for permeabilization. After three washes with 1 mL NH4HCO3 buffer (50 mM, pH 7.8), cells were resuspended in phosphate buffer (pH 7.4) and then the substrate and the NADPH regeneration system were added to a total volume of 50 µL. The samples were incubated at 37 °C and 1000 rpm for 3 h. For LC-MS analysis, the reaction mixture was extracted with an equal amount of ethyl acetate by centrifugation, and the supernatants were stored at −20 °C until use.
(§4) An Agilent HPLC/microTOF-Q II instrument equipped with a LiChrospher 100 RP-18 column was used to carry out all analytical procedures. The mobile phase that we used was a mixture of water with 0.05% formic acid as phase A and 100% acetonitrile as B, run at a constant flow of 0.3 mL/min for 45 min. The gradient used was 0–20 min (80% A: 20% B to 80% B), 20–30 min (100% B), 30–35 min again (100% B), and 35–45 min (80% A: 20% B). We used positive electrospray ionization mode at a capillary voltage of 4.5 kV for mass spectrometry.

CYP2A7-WT [11] = target: T2, CYP2A7-WT; conditions: by CYP2A7-WT; nicotine 250 µM
Protocol: as §3, §4

CYP2A6*1 [12] = target: T1, CYP2A6*1; conditions: by CYP2A6*1; nicotine 250 µM
Protocol: as §3, §4

[13] = pH 7.4, probe Luciferin-H (100 µM)

N#Cc1ccc(C(c2ccc(C#N)cc2)n2cncn2)cc1 [Letrozole]
inhibition at 3 h, 10 µM (CYP2A6*1 [1]; probe Luciferin-H (100 µM)): 64 ± 10% | inhibition at 3 h, 10 µM (CYP2A7-WT [2]; [13]): 72 ± 13% | inhibition at 3 h, 10 µM (CYP2A7*1 [3]; [13]): 78 ± 7%

c1ccc(Cn2ccnc2)cc1 [1-Benzyl-imidazole]
inhibition at 3 h, 10 µM (CYP2A6*1 [1]): 64 ± 12% | inhibition at 3 h, 10 µM (CYP2A7-WT [2]; pH 7.4): 80 ± 21% | inhibition at 3 h, 10 µM (CYP2A7*1 [3]; pH 7.4): 55 ± 11%

CC(=O)N1CCN(c2ccc(OCC3COC(Cn4ccnc4)(c4ccc(Cl)cc4Cl)O3)cc2)CC1 (centres unmarked) [Ketoconazole]
inhibition at 3 h, 10 µM (CYP2A6*1 [1]; probe Luciferin-H (100 µM)): 70 ± 11% | inhibition at 3 h, 10 µM (CYP2A7-WT [2]; [13]): 58 ± 17% | inhibition at 3 h, 10 µM (CYP2A7*1 [3]; [13]): 74 ± 4%

COc1ccc2nc(C3=NC(C(=O)O)CS3)sc2c1 (centres unmarked) [Luciferin-ME]
Conversion of luminogenic substrate (in words) (CYP2A7-WT [4]; by CYP2A7-WT, vs. negative control (CPR only)): also acted on both substrates | Luminescence (RLU) (CYP2A7-WT [4]): 439 ± 113 RLU | Conversion of luminogenic substrate (in words) (CYP2A7*1 [5]): can both metabolize | Luminescence (RLU) (CYP2A7*1 [5]): 276 ± 63 RLU | Conversion of luminogenic substrate (in words) (CYP2A6*1 [6]): can both metabolize

O=C(O)[C@H]1CSC(c2nc3ccc(OCc4ccccc4)cc3s2)=N1 [Luciferin-BE]
Luminescence (RLU) (CYP2A7-WT [4]): 6312 ± 699 RLU | Conversion of luminogenic substrate (in words) (CYP2A7*1 [5]): are CYP2A7*1 substrates | Luminescence (RLU) (CYP2A7*1 [5]): 16,216 ± 369 RLU

CCOc1ccc2ccc(=O)oc2c1 [7-ethoxycoumarin]
Conversion to 7-hydroxycoumarin (CYP2A6*1 [7]): confirmed the activity | Conversion to 7-hydroxycoumarin (CYP2A7-WT [8]): no reaction was observed | Conversion to 7-hydroxycoumarin (CYP2A7*1 [9]): no reaction was observed

CN1CCC[C@H]1c1cccnc1 [nicotine]
Metabolization of nicotine to the nicotine iminium ion (CYP2A7*1 [10]): no nicotine metabolite was found | Metabolization of nicotine to the nicotine iminium ion (CYP2A7-WT [11]): no nicotine metabolite was found | Metabolization of nicotine to the nicotine iminium ion (CYP2A6*1 [12]): confirmed the metabolization

O=c1ccc2ccccc2o1 [Coumarin, coumarin]
Conversion to 7-hydroxycoumarin (CYP2A6*1 [7]): confirmed the activity | Conversion to 7-hydroxycoumarin (CYP2A7-WT [8]): no reaction was observed | Conversion to 7-hydroxycoumarin (CYP2A7*1 [9]): no reaction was observed
